# Measurements: ChEMBL document CHEMBL3244202, “Synthesis and analgesic-antiinflammatory activity of some 4- and 5-substituted heteroarylsalicylic acids” (J Med Chem, 1978)
# What was measured:
# [1] = tested on: Rattus norvegicus; test: Antiinflammatory activity in po dosed rat assessed as inhibition of carrageenan-induced paw edema; assay type: functional
# [2] = Aqueous solubility of the compound in phosphate buffer at pH 7; assay type: physicochemical
# [3] = tested on: Rattus norvegicus; test: Analgesic activity in po dosed rat by hyperesthesia test; assay type: functional
# [4] = tested on: Rattus norvegicus; test: Antiinflammatory activity in po dosed Wistar rat assessed as reduction in adjuvant arthritis-induced lesion administered on days -1 through 1 measured on days 0 and 14
# [5] = tested on: Rattus norvegicus; test: Antipyretic activity in po dosed rat assessed as dose required to produce drop in body temperature of 1 degC administered on days 17 to 20 measured on day 20; assay type: functional; conditions: 480 h
# [6] = tested on: Rattus norvegicus; test: Antiinflammatory activity in po dosed rat assessed as reduction in adjuvant arthritis-induced lesion administered for 1 to 14 days measured on day 14; assay type: functional
# [7] = tested on: Rattus norvegicus; test: Gastrointestinal toxicity in rat assessed as gastric hemorrhage administered on days 17 to 20 measured on day 20; assay type: organism-based, Stomach; conditions: in vivo
# [8] = tested on: Canis familiaris; test: Antiinflammatory activity in po dosed dog assessed as reduction in urate synovitis measured after 2 hrs; assay type: functional; conditions: Canis lupus familiaris
# [9] = species: Homo sapiens; test: Inhibition of prostaglandin synthetase (unknown origin)
# [10] = tested on: Rattus norvegicus; test: Antiinflammatory activity in po dosed rat assessed as reduction in adjuvant arthritis-induced lesion administered on days 17 to 20 post adjuvant arthritis-challenge measured on day 20; assay type: functional; conditions: 480 h
# [11] = tested on: Rattus norvegicus; test: Antipyretic activity in po dosed rat administered on days 17 to 20 measured on day 20; conditions: 480 h
Compound,ED50 [1] [mg/kg],other results
O=C(O)c1cc(-c2ccccn2)ccc1O,200,
O=C(O)c1ccc(-n2cccc2)cc1O,200,
O=C(O)c1ccc(-c2ncco2)cc1O,> 250,
O=C(O)c1cc(-c2ccns2)ccc1O,80,solubility [2]: 7300 µg/mL; ED50 [3]: > 80 mg/kg
O=C(O)c1cc(-n2ccnc2)ccc1O,75,solubility [2]: 2000 µg/mL; ED50 [3]: 65 mg/kg
O=C(O)c1cc(-n2ccnn2)ccc1O,150,
O=C(O)c1cc(-c2ncco2)ccc1O,100,solubility [2]: 6000 µg/mL
O=C(O)c1ccccc1O [SALICYLIC ACID],200,ED50 [3]: > 150 mg/kg
O=C(O)c1cc(C2N=NN=N2)ccc1O,110,solubility [2]: 1700 µg/mL
O=C(O)c1cc(-c2csnn2)ccc1O,> 200,
CCCCOC(=O)Oc1ccc(-n2cccc2)cc1C(=O)O,52,ED50 [3]: 38 mg/kg
O=C(O)c1cc(-c2nccs2)ccc1O,> 250,
O=C(O)c1cc(-n2cccc2)ccc1O,50,ED50 [4]: 58 mg/kg; ED10 [5]: 401 mg/kg; solubility [2]: 8600 µg/mL; ED50 [6]: 64 mg/kg; ED50 [7]: > 800 mg/kg; ED50 [8]: 39 mg/kg; ID50 [9]: 0.3 µg/mL; ED50 [10]: 35 mg/kg; ED50 [3]: 30 mg/kg
O=C(O)c1cc(-c2ncc[nH]2)ccc1O,200,
CC(=O)Oc1ccccc1C(=O)O [ASPIRIN],90,ED50 [4]: 46 mg/kg; ED50 [6]: 33 mg/kg; ED50 [7]: 16 mg/kg; ED50 [8]: 68 mg/kg; ID50 [9]: 5 µg/mL; ED50 [11]: 43 mg/kg; ED50 [10]: 25 mg/kg; ED50 [3]: 90 mg/kg
O=C(O)c1cc(-c2cccnc2)ccc1O,> 250,
O=C(O)c1cc(-c2cnco2)ccc1O,> 200,

Compound,ED50 [1] [mg/kg],other results
O=C(O)c1cc(-c2ncccn2)ccc1O,100,solubility [2]: 6000 µg/mL
O=C(O)c1cc(-n2cccn2)ccc1O,200,
O=C(O)c1cc(-c2cc[nH]n2)ccc1O,> 250,
CC(=O)Oc1ccc(-n2cccc2)cc1C(=O)O,42,ED50 [3]: 35 mg/kg
O=C(O)c1cc(-c2cncs2)ccc1O,> 200,
O=C(O)c1cc(-c2cocn2)ccc1O,110,
O=C(O)c1cc(-n2cncn2)ccc1O,200,
O=C(O)c1cc(-c2cscn2)ccc1O,95,solubility [2]: 2700 µg/mL; ED50 [3]: 90 mg/kg
O=C(O)c1cc(-c2ccncn2)ccc1O,> 200,
O=C(O)c1cc(-n2nccn2)ccc1O,150,
O=C(O)c1cc(-n2cnnc2)ccc1O,> 250,
O=C(O)c1ccc(-c2cscn2)cc1O,70,solubility [2]: 8700 µg/mL; ED50 [3]: > 80 mg/kg
O=C(O)c1cc(-c2ccno2)ccc1O,110,
O=C(O)c1ccc(-c2nccs2)cc1O,110,
O=C(O)c1cc(-c2c[nH]cn2)ccc1O,100,solubility [2]: 1100 µg/mL
O=C(O)c1cc(-c2ccc(F)cc2F)ccc1O [DIFLUNISAL],9.8,ED50 [3]: 4.6 mg/kg
O=C(O)c1cc(-c2cccs2)ccc1O,60,solubility [2]: 7000 µg/mL
